{
  "source": "patent US20060216299A1",
  "about": "“Cell cycle targets and peptides” (Rigel Pharmaceuticals, Inc., priority 2002, published 2006)",
  "tested_on": "A549.tTA cells expressing #38 and #41",
  "test": "Role of farnesylation in cellular localization of GFP fused #38",
  "format": "cell-based, human",
  "conditions": "2 μM L-744,832, 48 hours",
  "description": "#38 has a CAAX box motif in the C-terminus. A 15-carbon farnesyl or 20-carbon geranylgeranyl isoprenoid is linked to the Cys in a CAAX box motif by Farnesyl transferase or Geranylgeranyl transferase, respectively (Fu, H. W. et al., Recent Prog Horm Res, 54:315-342; discussion 342-313 (1999)). The role of farnesylation in cellular localization of #38 was examined. A549.tTA cells expressing #38 and #41 were treated with a peptidomimetic farnesyltransferase specific inhibitor, L-744,832 for 48 hours.",
  "data": [
    {"smiles": "CC[C@H](C)[C@@H](CO[C@@H](Cc1ccccc1)C(=O)N[C@@H](CCS(C)(=O)=O)C(=O)OC(C)C)NC[C@@H](N)CS", "note": "[L-744,832]", "values": [
      {"measurement": "cellular localization of #38 in the presence of inhibitor", "result": "completely abolished"}
    ]}
  ]
}
